Patent US20020137929A1, “1 - (3-heterocyclylphenyl) isothiourea, -isourea, -guanidine and -amidine herbicidal agents” (Intellectual Property Department, BASF Aktiengesellschaft, priority 1998, published 2002)

Tests used:
[1] = test system: SETVI (Foxtail, Green); test: Preemergence herbicidal evaluation; assay type: in vivo, Setaria viridis; conditions: rated 4-5 weeks after treatment
Summary of the method: (§1)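 Scores (0–9) reflect visual comparison with control plants for stand, vigor, malformation, size and chlorosis. Compound was applied to the soil after sowing, before emergence, as an aqueous acetone spray (about 0.0156–0.500 kg/ha), and cups were kept in a greenhouse for 4–5 weeks.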

[2] = test system: AMBEL (Ragweed, Common); test: Preemergence herbicidal evaluation; assay type: in vivo, Ambrosia artemisifolia; conditions: rated 4-5 weeks after treatment
Summary of the method: as §1

[3] = test system: GALAP (Galium); test: Preemergence herbicidal evaluation; assay type: in vivo, Galium aparine; conditions: rated 4-5 weeks after treatment
Summary of the method: as §1

[4] = test system: CASOB (Sicklepod); test: Preemergence herbicidal evaluation; assay type: in vivo, Cassia obtusifolia; conditions: rated 4-5 weeks after treatment
Summary of the method: as §1

[5] = test system: IPOHE (Morningglory, Ivyleaf); test: Postemergence herbicidal evaluation; assay type: in vivo, Ipomoea hederacea; conditions: postemergence
Summary of the method: (§2)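 Each compound, dispersed in an acetone/water mix (50/50) carrying 0.5% TWEEN 20, is nozzle-sprayed at 40 psi on approximately two-week-old seedlings at about 0.0156–0.500 kg/ha. Plants are assessed 4–5 weeks afterward on a 0–9 scale relative to control; duplicate tests are averaged.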

[6] = test system: GLXMAW (Soybean, Williams); test: Preemergence herbicidal evaluation; assay type: in vivo, Glycine max, (L.) Merr. cv Williams; conditions: rated 4-5 weeks after treatment
Summary of the method: as §1

[7] = test system: GLXMAW (Soybean, Williams); test: Postemergence herbicidal evaluation; assay type: in vivo, Glycine max, (L.) Merr. cv Williams; conditions: postemergence
Summary of the method: as §2

[8] = test system: ABUTH (Velvetleaf); test: Preemergence herbicidal evaluation; assay type: in vivo, Abutilon theophrasti; conditions: rated 4-5 weeks after treatment
Summary of the method: as §1

[9] = test system: ECHCG (Barnyardgrass); test: Preemergence herbicidal evaluation; assay type: in vivo, Echinochloa crus-galli; conditions: rated 4-5 weeks after treatment
Summary of the method: as §1

[10] = test system: AMBEL (Ragweed, Common); test: Postemergence herbicidal evaluation; assay type: in vivo, Ambrosia artemisifolia; conditions: postemergence
Summary of the method: as §2

[11] = test system: CYPSE (Flatsedge); test: Preemergence weed control under flooded paddy conditions; assay type: in vivo, Cyperus serotinus; conditions: rated 3-4 weeks after treatment
Summary of the method: (§3)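 Visual injury scored 0-9 against control three to four weeks post-treatment, greenhouse-grown. Application: acetone/water (50/50) solutions dosed directly into flood water (1.5-3 cm over silt loam, planted top 0.5 cm), roughly 0.0313 to 0.500 kg/ha active ingredient.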

[12] = test system: ZEAMX (Corn, Field); test: Postemergence herbicidal evaluation; assay type: in vivo, Zea mays; conditions: postemergence
Summary of the method: as §2

[13] = test system: SAGPY (Arrowhead (Pygmaea)); test: Preemergence weed control under flooded paddy conditions; assay type: in vivo, Sagittaria pygmaea; conditions: rated 3-4 weeks after treatment
Summary of the method: as §3

SMILES: Cn1c(C(F)(F)F)cc(=O)n(-c2cc(N=C3SCC(=O)N3CC(=O)OCC3CC3)c(Cl)cc2F)c1=O [Compound 124, Cyclopropylmethyl 2-{{2-chloro-5-[3,6-dihydro-3-methyl-2,6-dioxo-4-(trifluoromethyl)-1(2H)-pyrimidinyl]-4-fluorophenyl}imino}-4-oxo-3-thiazolidineacetate]
- Preemergence herbicidal rating SETVI ([1]; rate 0.0156 kg/ha): 0.0
- Preemergence herbicidal rating SETVI ([1]; rate 0.0313 kg/ha): 0.0
- Preemergence herbicidal rating SETVI ([1]; rate 0.0625 kg/ha): 0.0
- Preemergence herbicidal rating SETVI ([1]; rate 0.1250 kg/ha): 0.0
- Preemergence herbicidal rating SETVI ([1]; rate 0.2500 kg/ha): 4.0
- Preemergence herbicidal rating SETVI ([1]; rate 0.5000 kg/ha): 9.0
- Preemergence herbicidal rating AMBEL ([2]; rate 0.0156 kg/ha): 0.0
- Preemergence herbicidal rating AMBEL ([2]; rate 0.0313 kg/ha): 0.0
- Preemergence herbicidal rating AMBEL ([2]; rate 0.0625 kg/ha): 4.0
- Preemergence herbicidal rating AMBEL ([2]; rate 0.1250 kg/ha): 9.0
- Preemergence herbicidal rating AMBEL ([2]; rate 0.2500 kg/ha): 9.0
- Preemergence herbicidal rating AMBEL ([2]; rate 0.5000 kg/ha): 9.0
- Preemergence herbicidal rating GALAP ([3]; rate 0.0156 kg/ha): 0.0
- Preemergence herbicidal rating GALAP ([3]; rate 0.0313 kg/ha): 0.0
- Preemergence herbicidal rating GALAP ([3]; rate 0.0625 kg/ha): 0.0
- Preemergence herbicidal rating GALAP ([3]; rate 0.1250 kg/ha): 0.0
- Preemergence herbicidal rating GALAP ([3]; rate 0.2500 kg/ha): 6.0
- Preemergence herbicidal rating GALAP ([3]; rate 0.5000 kg/ha): 7.0
- Preemergence herbicidal rating CASOB ([4]; rate 0.0156 kg/ha): 0.0
- Preemergence herbicidal rating CASOB ([4]; rate 0.0313 kg/ha): 0.0
- Preemergence herbicidal rating CASOB ([4]; rate 0.0625 kg/ha): 1.0
- Preemergence herbicidal rating CASOB ([4]; rate 0.1250 kg/ha): 0.0
- Preemergence herbicidal rating CASOB ([4]; rate 0.2500 kg/ha): 3.0
- Preemergence herbicidal rating CASOB ([4]; rate 0.5000 kg/ha): 0.0
- herbicidal rating IPOHE ([5]; rate 0.0156 kg/ha): 9.0
- herbicidal rating IPOHE ([5]; rate 0.0313 kg/ha): 9.0
- herbicidal rating IPOHE ([5]; rate 0.0625 kg/ha): 9.0
- Preemergence herbicidal rating GLXMAW ([6]; rate 0.0156 kg/ha): 0.0
- Preemergence herbicidal rating GLXMAW ([6]; rate 0.0313 kg/ha): 0.0
- Preemergence herbicidal rating GLXMAW ([6]; rate 0.0625 kg/ha): 0.0
- Preemergence herbicidal rating GLXMAW ([6]; rate 0.1250 kg/ha): 0.0
- Preemergence herbicidal rating GLXMAW ([6]; rate 0.2500 kg/ha): 0.0
- Preemergence herbicidal rating GLXMAW ([6]; rate 0.5000 kg/ha): 3.0
- herbicidal rating GLXMAW ([7]; rate 0.0156 kg/ha): 6.7
- herbicidal rating GLXMAW ([7]; rate 0.0313 kg/ha): 7.3
- herbicidal rating GLXMAW ([7]; rate 0.0625 kg/ha): 7.0
- Preemergence herbicidal rating ABUTH ([8]; rate 0.0156 kg/ha): 0.0
- Preemergence herbicidal rating ABUTH ([8]; rate 0.0313 kg/ha): 0.0
- Preemergence herbicidal rating ABUTH ([8]; rate 0.0625 kg/ha): 0.0
- Preemergence herbicidal rating ABUTH ([8]; rate 0.1250 kg/ha): 2.0
- Preemergence herbicidal rating ABUTH ([8]; rate 0.2500 kg/ha): 4.0
- Preemergence herbicidal rating ABUTH ([8]; rate 0.5000 kg/ha): 7.0
- Preemergence herbicidal rating ECHCG ([9]; rate 0.0156 kg/ha): 0.0
- Preemergence herbicidal rating ECHCG ([9]; rate 0.0313 kg/ha): 0.0
- Preemergence herbicidal rating ECHCG ([9]; rate 0.0625 kg/ha): 0.0
- Preemergence herbicidal rating ECHCG ([9]; rate 0.1250 kg/ha): 0.0
- Preemergence herbicidal rating ECHCG ([9]; rate 0.2500 kg/ha): 0.0
- Preemergence herbicidal rating ECHCG ([9]; rate 0.5000 kg/ha): 1.0
- herbicidal rating AMBEL ([10]; rate 0.0156 kg/ha): 9.0
- herbicidal rating AMBEL ([10]; rate 0.0313 kg/ha): 9.0
- herbicidal rating AMBEL ([10]; rate 0.0625 kg/ha): 9.0
- herbicidal effect rating, CYPSE ([11]; 0.0313 kg/ha): 0.0
- herbicidal effect rating, CYPSE ([11]; 0.0625 kg/ha): 0.0
- herbicidal effect rating, CYPSE ([11]; 0.1250 kg/ha): 2.0
- herbicidal effect rating, CYPSE ([11]; 0.2500 kg/ha): 3.0
- herbicidal rating ZEAMX ([12]; rate 0.0156 kg/ha): 6.3
- herbicidal rating ZEAMX ([12]; rate 0.0313 kg/ha): 7.3
- herbicidal rating ZEAMX ([12]; rate 0.0625 kg/ha): 8.0
- herbicidal effect rating, SAGPY ([13]; 0.0313 kg/ha): 0.0
- herbicidal effect rating, SAGPY ([13]; 0.0625 kg/ha): 0.0
- herbicidal effect rating, SAGPY ([13]; 0.1250 kg/ha): 4.0
- herbicidal effect rating, SAGPY ([13]; 0.2500 kg/ha): 5.0
